Measurements reported in US10731159B2, “Cationic lipid” (DAIICHI SANKYO COMPANY, LIMITED, priority 2013, dated 2020).

How the values were obtained:
Assay type in all cases: cell-based
[1] = system: human β-catenin gene; assay: Test Example 3: β-catenin gene expression inhibition in SW480 cells, 4 hours, real-time PCR
Protocol: As described below, the strength of human β-catenin gene expression inhibitory activity was compared among nucleic acid lipid particles each prepared using a novel lipid.
(§1) The concentration of a human colorectal cancer SW480 cell line (derived from human colorectal adenocarcinoma) was adjusted to 50000 cells/mL in a RPMI1640 medium (manufactured by Invitrogen Corp.) containing 10% fetal bovine serum (culture medium). Then, the resulting culture solution was inoculated at 100 μL/well to a 96-well flat-bottomed plate (manufactured by Corning Inc./Falcon) and cultured at 37° C. for 1 day under 5.0% CO2. The nucleic acid lipid particle-containing dispersion prepared in Example 31 was diluted with a culture medium to prepare dilution series having final double-stranded polynucleotide concentrations of 30, 3, 0.3, and 0.03 nM in the medium. Then, each dilution was added to the cells after removal of the culture supernatant, and the culture was further continued for 4 hours. This operation was performed at N=3 for each concentration.
A lysate and cDNA for real-time PCR measurement were prepared from the transfected cells using TaqMan® Fast-Cells-to-Ct kit (Life Technologies, Inc./Ambion) according to the instruction manual. In the lysate preparation, Lysis Solution supplemented with DNase I was used. […]
(§2) The quantitative analysis was conducted by the ΔΔCt method.

[2] = system: human hepatocellular carcinoma HuH-7 cell line; assay: Test Example 11: mCherry mRNA expression in HuH-7 cells, fluorescent observation; conditions: mCherry mRNA 2, 0.4, 0.08 μg/mL, one day after transfection, particle of Example 58
Protocol: As described below, the expression of mCherry was measured using a nucleic acid lipid particle prepared using a novel lipid.
(§3) The concentration of a human hepatocellular carcinoma HuH-7 cell line was adjusted to 10,000 cells/mL in a DMEM medium (manufactured by Invitrogen Corp.) containing 10% fetal bovine serum (culture medium). Then, the resulting culture solution was inoculated at 100 μL/well to a 96-well flat-bottomed plate (manufactured by Corning Inc./Falcon) and cultured at 37° C. for 1 day under 5.0% CO2. The nucleic acid lipid particle dispersion prepared in Example 58 was diluted with a culture medium to prepare dilution series having final mRNA concentrations of 2, 0.4, and 0.08 μg/mL in the medium. Then, each dilution was added to the cells after removal of the culture supernatant, and the culture was further continued. This operation was performed at N=3 for each concentration. A control group was cultured in only a culture medium.
One day after the transfection, the culture medium was removed, and 100 μL of 10 N Mildform (Wako Pure Chemical Industries Ltd.) was added to each well and left at room temperature for 10 minutes in the dark. […] After replacement with DPBS, the fluorescence was observed using IN Cell Analyzer 6000 (GE Healthcare Japan Corp.). […]

[3] = system: human hepatocellular carcinoma HuH-7 cell line; assay: Test Example 11: expression level of luciferase (FLuc mRNA) in HuH-7 cells; conditions: six hours after transfection; for expression level of luciferase, RLU: average N=3
Protocol: as §3
Six hours after the transfection, the expression level of luciferase was measured using Luciferase reporter Gene Assay, high sensitivity (manufactured by F. Hoffmann-La Roche, Ltd.) according to the attached document.

[4] = system: human β-catenin gene; assay: Test Example 8: β-catenin gene expression inhibition in SW480 cells, procedures of Test Example 3, 50-0.05 nM; conditions: procedures of Test Example 3, 50, 5, 0.5, 0.05 nM, particles of Example 55, read-out: β-catenin gene expression inhibitory activity IC50
Protocol: as §1
A lysate and cDNA for real-time PCR measurement were prepared from the transfected cells using TaqMan® Fast-Cells-to-Ct kit (Life Technologies, Inc./Ambion) according to the instruction manual. In the lysate preparation, Lysis Solution supplemented with DNase I was used. The probes for real-time PCR used were TaqMan® Gene Expression Assays (CTNNB1, FAM probe) (Hs00355045_m1, manufactured by Applied Biosystems, Inc.) for the human β-catenin gene and a human GAPDH gene probe as an internal standard (VIC probe, Hs99999905_m1, manufactured by Applied Biosystems, Inc.). 5 μL of TaqMan® Fast Advanced Master Mix, 2 μL of RNase-Free Water, 0.5 μL of each gene probe, and 2 μL of the prepared cDNA solution were added per well of a 384-well PCR plate (manufactured by Applied Biosystems, Inc.) to bring the total amount to 10 μL, which was then loaded in ViiA™ 7 Real-time PCR system (manufactured by Applied Biosystems, Inc.) and subjected to PCR under conditions given below. The real-time PCR was carried out at N=4 for the cDNA prepared from the lysate.
as §2
By the same procedures as in Test Example 3, SW480 cells were treated with 50 nM, 5 nM, 0.5 nM, and 0.05 nM each of nucleic acid lipid particles each prepared using a novel lipid, and the strength of human β-catenin gene expression inhibitory activity was compared among these particles.

IC50 ([1]; nucleic acid lipid particle of Example 31 containing the named lipid, read-out: β-catenin gene expression inhibitory activity IC50)	SMILES	inhibitory activity against β-catenin gene expression (in words) ([1]; compared with particle containing lipid compound 1)	expression of mCherry (fluorescent observation, FIG. 6, in words) [2]	expression level of luciferase, RLU ([3]; FLuc mRNA concentration 0.08 μg/mL)	expression level of luciferase, RLU ([3]; FLuc mRNA concentration 0.4 μg/mL)	expression level of luciferase, RLU ([3]; FLuc mRNA concentration 2.0 μg/mL)	expression of FLuc (in words) ([3]; particle of Example 58)	IC50 [4]
8.3 nM	CCCCC/C=C\C/C=C\CCCCCCCC(CCCCCCCCCC)OC(=O)OCCCN(C)C (centres unmarked) [Example 8, 3-Dimethylaminopropyl(9Z,12Z)-octacosa-19,22-dien-11-yl Carbonate]	strong inhibitory activity	promote the expression of mCherry	0.7 1 × 10^5	2.7 1 × 10^5	3.7 1 × 10^5	promote the expression of FLuc	–
–	CCCCC/C=C\C/C=C\CCCCCCCCC(CCCCCCCC/C=C\C/C=C\CCCCC)OC(=O)OCCN(C)C [Reference Example 2, 2-(Dimethylamino)ethyl(6Z,9Z,28Z,31Z)-heptatriaconta-6,9,28,31-tetraen-19-yl Carbonate, reference compound]	–	–	–	–	–	–	> 50 nM
